Results published in ChEMBL document CHEMBL1141038, “Identification of ortho-amino benzamides and nicotinamides as MCHr1 antagonists” (Bioorg Med Chem Lett, 2005).

What was measured:
[1] = molecular target: T1, Melanin-concentrating hormone receptor 1 (Homo sapiens, UniProt Q99705); assay: Inhibitory concentration against MCH1R IMR32 cells in FLIPR-based assay; format: cell-based, IMR-32
[2] = molecular target: T1, Melanin-concentrating hormone receptor 1; assay: Inhibitory activity towards melanin-concentrating hormone receptor 1 in IMR32 cells; format: cell-based, IMR-32
[3] = Brain half life in DIO mice after 10 mg/kg oral dose; format: ADME, organism-based; parameters: dose 10 mg/kg, route oral; details: mouse
[4] = Plasma half life in DIO mice after 10 mg/kg oral dose; format: ADME, organism-based; parameters: dose 10 mg/kg, route oral; details: mouse
[5] = Plasma area under curve in DIO mice after 10 mg/kg oral dose; format: ADME, organism-based; parameters: dose 10 mg/kg, route oral; details: mouse, in vivo
[6] = Brain/plasma area under curve in DIO mice after 10 mg/kg oral dose; format: ADME, organism-based; parameters: dose 10 mg/kg, route oral; details: mouse, read-out: AUC
[7] = Brain Cmax in DIO mice after 10 mg/kg oral dose; format: ADME, organism-based; parameters: dose 10 mg/kg, route oral; details: mouse
[8] = Plasma peak concentration in DIO mice after 10 mg/kg oral dose; format: ADME, organism-based; parameters: dose 10 mg/kg, route oral; details: mouse
[9] = Brain/plasma in DIO mice after 10 mg/kg oral dose; format: ADME, organism-based; parameters: dose 10 mg/kg, route oral; details: mouse, read-out: AUC
[10] = Area under the curve in brain of DIO mice after 10 mg/kg oral dose; format: ADME, organism-based; parameters: dose 10 mg/kg, route oral; details: mouse, in vivo
[11] = Area under the curve in plasma of DIO mice after 10 mg/kg oral dose; format: ADME, organism-based; parameters: dose 10 mg/kg, route oral; details: mouse, in vivo
[12] = Plasma Cmax in DIO mice after 10 mg/kg oral dose; format: ADME, organism-based; parameters: dose 10 mg/kg, route oral; details: mouse

T1 sequence (Q99705 whole entry): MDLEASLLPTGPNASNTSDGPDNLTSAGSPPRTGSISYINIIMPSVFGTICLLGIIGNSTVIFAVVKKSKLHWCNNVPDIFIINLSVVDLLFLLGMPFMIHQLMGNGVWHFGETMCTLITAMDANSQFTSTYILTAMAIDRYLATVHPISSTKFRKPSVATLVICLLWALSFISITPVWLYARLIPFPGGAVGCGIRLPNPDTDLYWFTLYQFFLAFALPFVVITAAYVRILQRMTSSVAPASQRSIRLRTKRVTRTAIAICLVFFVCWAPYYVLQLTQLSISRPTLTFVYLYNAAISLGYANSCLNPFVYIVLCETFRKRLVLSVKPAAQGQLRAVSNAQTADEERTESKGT

Compound | IC50 [1] [µM] | IC50 [2] [µM] | other results
COc1ccc(NCc2cncnc2)c(C(=O)NC2CCN(Cc3ccc4c(c3)OCO4)CC2)c1 | 0.07 | 0.009 | 
COc1ccc(NCC2CC2)c(C(=O)NC2CCN(Cc3ccc4c(c3)OCO4)CC2)c1 | 0.09 | 0.01 | 
O=C(NC1CCN(Cc2ccc3c(c2)OCO3)CC1)c1cc(Cl)ccc1O | 0.51 | 0.08 | 
O=C(NC1CCN(Cc2ccc3c(c2)OCO3)CC1)c1cccc(Cl)c1 |  | 0.11 | 
COc1ccc(NCc2cncn2C)c(C(=O)NC2CCN(Cc3ccc4c(c3)OCO4)CC2)c1 | 0.1 | 0.09 | 
COc1ccc(NCc2ncc[nH]2)c(C(=O)NC2CCN(Cc3ccc4c(c3)OCO4)CC2)c1 | 0.22 | 0.07 | 
COc1ccc(NCc2c[nH]cn2)c(C(=O)NC2CCN(Cc3ccc4ncccc4c3)CC2)c1 | 0.1 | 0.07 | 
O=C(NC1CCN(Cc2ccc3c(c2)OCO3)CC1)c1cc(Cl)cnc1NCc1cnc[nH]1 | 0.02 | 0.009 | 
CC(=O)c1ccc(CN2CCC(NC(=O)c3cc(Cl)ccc3NCc3c[nH]cn3)CC2)cc1 | 0.24 | 0.01 | 
COc1ccc(NC(=O)NC(C)C)c(C(=O)NC2CCN(Cc3ccc(Cl)cc3)CC2)c1 |  | 0.22 | 
O=C(NC1CCN(Cc2ccc3c(c2)OCO3)CC1)c1cc(Cl)cnc1NCc1cscn1 | 0.008 | 0.004 | 
O=C(Nc1ccc(Cl)cc1C(=O)NC1CCN(Cc2ccc3c(c2)OCO3)CC1)c1ccccn1 | 0.37 | 0.02 | 
CC(C)OCCCNc1ncc(Cl)cc1C(=O)NC1CCN(Cc2ccc3c(c2)OCO3)CC1 | 0.06 | 0.007 | 
Nc1ccc(Cl)cc1C(=O)NC1CCN(Cc2ccc3c(c2)OCO3)CC1 | 0.2 | 0.009 | 
CS(=O)(=O)Nc1ccc(Cl)cc1C(=O)NC1CCN(Cc2ccc3c(c2)OCO3)CC1 |  | 0.56 | 
COc1ccc(NCC2CCOC2)c(C(=O)NC2CCN(Cc3ccc4c(c3)OCO4)CC2)c1 (stereo not drawn) | 0.04 | 0.02 | 
O=C(NC1CCN(Cc2ccc3ccccc3c2)CC1)c1cc(Cl)ccc1NCc1nccs1 | 0.04 | 0.006 | 
O=C(NC1CCN(Cc2ccc3c(c2)OCO3)CC1)c1cc(Cl)ccc1NCc1nccs1 | 0.016 | 0.002 | half-life [3]: 7.8 h; half-life [4]: 3.8 h; AUC [5]: 4100 ng·h/mL; Kp [6]: 0.7; Cmax [7]: 814 ng/mL; Cmax [8]: 2030 ng/mL
COc1ccc(NCc2c[nH]cn2)c(C(=O)NC2CCN(Cc3ccc4ccccc4c3)CC2)c1 | 1.94 | 0.39 | 
CC(C)OCCNc1ncc(-c2cccs2)cc1C(=O)NC1CCN(Cc2ccc3c(c2)OCO3)CC1 |  | 0.19 | 
CC(C)OCCNc1ncc(-c2ccncc2)cc1C(=O)NC1CCN(Cc2ccc3c(c2)OCO3)CC1 |  | 0.14 | 
COc1ccc(NCC2CCCCC2)c(C(=O)NC2CCN(Cc3ccc4c(c3)OCO4)CC2)c1 | 1.06 | 0.05 | 
COc1ccc(NCc2c[nH]cn2)c(C(=O)NC2CCN(Cc3ccc4c(c3)OCO4)CC2)c1 | 0.05 | 0.02 | 
COc1ccc(NS(C)(=O)=O)c(C(=O)NC2CCN(Cc3ccc4c(c3)OCO4)CC2)c1 |  | 0.26 | 
O=C(NC1CCN(Cc2ccc3c(c2)OCO3)CC1)c1ccccc1NCc1c[nH]cn1 |  | 0.41 | 
CNc1ccc(Cl)cc1C(=O)NC1CCN(Cc2ccc3c(c2)OCO3)CC1 |  | 0.68 | 
O=C(NC1CCN(Cc2ccc3ncccc3c2)CC1)c1cc(Cl)ccc1NCc1nccs1 | 0.03 | 0.02 | 
COc1ccc(NCc2ccccn2)c(C(=O)NC2CCN(Cc3ccc4c(c3)OCO4)CC2)c1 | 0.07 | 0.02 | 
CC(C)OCCNc1ncc(Cl)cc1C(=O)NC1CCN(Cc2ccc3c(c2)OCO3)CC1 | 0.02 | 0.01 | half-life [3]: 1.4 h; half-life [4]: 2.3 h; Kp [9]: 0.84; AUC [10]: 570 ng·h/mL; AUC [11]: 677 ng·h/mL; Cmax [7]: 276 ng/mL; Cmax [12]: 283 ng/mL

Further lines, with some results ahead:

IC50 [1] [µM] | IC50 [2] [µM] | Compound | other results
0.02 | 0.02 | O=C(NC1CCN(Cc2ccc3c(c2)OCO3)CC1)c1cc(Cl)cnc1NCC1CC1 | 
0.05 | 0.02 | CC(C)CNc1ncc(Cl)cc1C(=O)NC1CCN(Cc2ccc3c(c2)OCO3)CC1 | 
1.22 | 0.06 | O=C(NC1CCN(Cc2ccc(Cl)cc2)CC1)c1cc(Cl)cnc1NCc1ccco1 | 
 | 0.16 | COc1ccc(NS(C)(=O)=O)c(C(=O)NC2CCN(Cc3ccc(Cl)cc3)CC2)c1 | 
0.03 | 0.01 | COc1ccc(CNc2ncc(Cl)cc2C(=O)NC2CCN(Cc3ccccc3)CC2)cc1 | 
0.02 | 0.05 | O=C(NC1CCN(Cc2ccc3c(c2)OCO3)CC1)c1cc(Cl)cnc1NC[C@H]1CCCO1 | 
0.07 | 0.07 | CC(C)Nc1ncc(Cl)cc1C(=O)NC1CCN(Cc2ccc3c(c2)CCO3)CC1 | 
 | 1.98 | O=C(NC1CCN(Cc2ccc(Cl)cc2)CC1)c1cc(Cl)cnc1NC1CCC1 | 
 | 0.41 | O=C(NC1CCN(Cc2ccc(Cl)cc2)CC1)c1cc(Cl)cnc1NCC1CC1 | 
0.009 | 0.006 | O=C(NC1CCN(Cc2ccc3c(c2)OCO3)CC1)c1cc(Cl)cnc1NCc1nccs1 | 
0.03 | 0.02 | CC(C)Nc1ncc(Cl)cc1C(=O)NC1CCN(Cc2ccc3c(c2)OCO3)CC1 | 
0.03 | 0.07 | O=C(NC1CCN(Cc2ccc3c(c2)OCO3)CC1)c1cc(Cl)cnc1NC1CCC1 | 
 | 0.16 | COc1ccc(CN2CCC(NC(=O)c3cc(Cl)cnc3NCC(C)C)CC2)cc1F | 
 | 2.01 | O=C(NC1CCN(Cc2ccc3c(c2)OCO3)CC1)c1cc(Cl)cnc1Cl | 
0.07 | 0.02 | O=C(NC1CCN(Cc2ccc3c(c2)OCO3)CC1)c1cc(Cl)cnc1NCc1ncc[nH]1 | 
